# Columns and labels:
# [1] = test system: giant foxtail; test: Test B pre/postemergence giant foxtail; type: in vivo, Setaria faberii
# How it was run: (§1)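 Herbicidal effect was estimated by eye on a ten-point control scale after plants spent twelve to sixteen days in a greenhouse following soil or foliar treatment. Foliar sprays targeted plants at one to four leaves; all doses were formulated in a non-phytotoxic solvent with surfactant.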
# [2] = test system: soybean; test: Test B pre/postemergence soybean; type: in vivo, Glycine max
# How it was run: as §1
# [3] = test system: rice; test: Test B flood test rice; type: in vivo, Oryza sativa
# How it was run: (§2)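 Read-out is a visual response score from 0 (no effect) to 10 (complete control), assigned by comparison with untreated controls. Treatment was applied at the 2-leaf stage, and plants stayed in the greenhouse for twelve to sixteen days before scoring.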
# [4] = test system: bamyardgrass; test: Test B flood test barnyardgrass; type: in vivo, Echinochloa crus-galli
# How it was run: as §2
# [5] = test system: large crabgrass; test: Test D large crabgrass; type: in vivo, Digitaria sanguinalis; conditions: Preemergence, 0 to 100 scale
# How it was run: (§3)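 Scoring used a 0–100 visual injury scale, with 0 meaning no effect and 100 complete control, assessed 14–21 days after application alongside untreated pots. Preemergence treatments went onto sandy loam surfaces of separately potted seeds within a day of sowing.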
# [6] = test system: purple nutsedge; test: Test D purple nutsedge; type: in vivo, Cyperus rotundus; conditions: Preemergence, 0 to 100 scale
# How it was run: as §3
# [7] = test system: winter wheat; test: Test E winter wheat; type: in vivo, Triticum aestivum; conditions: Postemergence
# How it was run: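 Visual evaluation versus untreated controls after about 21 to 28 days in the greenhouse. Compound was in a surfactant-containing non-phytotoxic solvent; postemergence plants were treated at the 1- to 4-leaf stage, grown in a 60:40 sandy loam and potting mix blend.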
# [8] = test system: blackgrass; test: Test E blackgrass; type: in vivo, Alopecurus myosuroides; conditions: Preemergence
# [9] = test system: green foxtail; test: Test E green foxtail; type: in vivo, Setaria viridis; conditions: Preemergence
# [10] = test system: Italian ryegrass; test: Test E Italian ryegrass; type: in vivo, Lolium multiflorum; conditions: Preemergence
# [11] = test system: winter wheat; test: Test E winter wheat; type: in vivo, Triticum aestivum; conditions: Preemergence
# [12] = test system: wild oat; test: Test E wild oat; type: in vivo, Avena fatua; conditions: Preemergence
# [13] = test system: winter barley; test: Test E winter barley; type: in vivo, Hordeum vulgare; conditions: Preemergence
# [14] = Postemergence, Rate 125 g/ha, scale of 0 to 10 where 0 is no effect and 10 is complete control
# [15] = Preemergence, Rate 62 g/ha, scale 0 to 10 (0 no effect, 10 complete control)
# [16] = Preemergence, Rate 125 g/ha, scale 0 to 10 (0 no effect, 10 complete control)
# [17] = Preemergence, Rate 250 g/ha, scale of 0 to 10 where 0 is no effect and 10 is complete control
# [18] = Preemergence, Rate 500 g/ha, scale 0 to 10 (0 no effect, 10 complete control)
# [19] = Rate 62 g/ha, Postemergence, scale of 0 to 10 where 0 is no effect and 10 is complete control
# [20] = Rate 500 g/ha, Postemergence, scale 0 to 10, 0 no effect, 10 complete control
# [21] = Rate 250 g/ha, headed Pre-emergence (flood test species), scale 0 to 10 (0 no effect, 10 complete control)
# [22] = Rate 500 g/ha, headed Pre-emergence (flood test species), scale 0 to 10 (0 no effect, 10 complete control)
# [23] = Rate 500 g/ha, listed under Postemergence (flood test species), scale 0 to 10, 0 no effect, 10 complete control
# [24] = Rate 1000 g/ha, Pre-emergence (as headed), scale 0 to 10
# [25] = Rate 16 g/ha, 0 no injury, 100 complete control
# [26] = Rate 32 g/ha, 0 no injury, 100 complete control
# [27] = Rate 64 g/ha, 0 no injury, 100 complete control
# [28] = Rate 125 g/ha, 0 no injury, 100 complete control
# [29] = Rate 62 g/ha, 0 to 100 scale, 0 no effect, 100 complete control
# [30] = Rate 125 g/ha, 0 to 100 scale (0 no effect, 100 complete control)
# [31] = Rate 500 g/ha, 0 to 100 scale where 0 is no effect and 100 is complete control
compound,measurement,setting,value
CC(C)N(C(=O)n1oc(=O)n(C(C)C)c1=O)c1ccc(F)cc1F [Compound 109],Giant foxtail plant response rating,[1]; [14],9
same,Giant foxtail plant response rating,"[1]; Postemergence, Rate 250 g/ha, scale 0 to 10, 0 no effect, 10 complete control",9
same,Giant foxtail plant response rating,[1]; [15],10
same,"Plant response rating, Giant foxtail",[1]; [16],10
same,"Plant response rating, Giant foxtail",[1]; [17],10
same,Giant foxtail plant response rating,[1]; [18],10
same,Giant foxtail plant response rating,[1]; [19],8
same,Giant foxtail plant response rating,[1]; [20],9
same,Soybean plant response rating,[2]; [14],6
same,Soybean plant response rating,[2]; [15],0
same,"Plant response rating, Soybean",[2]; [16],7
same,"Plant response rating, Soybean",[2]; [17],8
same,Soybean plant response rating,[2]; [18],9
same,Soybean plant response rating,[2]; [19],4
same,"Plant response rating, Soybean","[2]; Rate 250 g/ha, Postemergence, scale 0 to 10, 0 is no effect, 10 is complete control",7
same,Soybean plant response rating,[2]; [20],7
same,Rice plant response rating,"[3]; Postemergence (flood test species), Rate 125 g/ha, scale of 0 to 10 where 0 is no effect and 10 is complete control",0
same,Rice plant response rating,"[3]; Rate 62 g/ha, Postemergence section, flood test species, scale of 0 to 10 where 0 is no effect and 10 is complete control",0
same,"Plant response rating, Rice","[3]; Rate 250 g/ha, Postemergence (flood test), scale 0 to 10, 0 is no effect, 10 is complete control",0
same,Rice plant response rating,[3]; [21],0
same,"Plant response rating, Rice",[3]; [22],0
same,Rice plant response rating,[3]; [23],0
same,Rice plant response rating,[3]; [24],0
same,Rice plant response rating,"[3]; Rate 2000 g/ha, Pre-emergence (as headed), scale 0 to 10",7
same,Barnyardgrass plant response rating,"[4]; Postemergence, Rate 62 g/ha, scale 0 to 10, 0 is no effect, 10 is complete control",0
same,Barnyardgrass plant response rating,"[4]; Rate 125 g/ha, Postemergence section (flood test species), scale 0 to 10, 0 no effect, 10 complete control",0
same,Barnyardgrass plant response rating,[4]; [21],0
same,"Plant response rating, Barnyardgrass",[4]; [22],0
same,Barnyardgrass plant response rating,[4]; [23],0
same,Barnyardgrass plant response rating,[4]; [24],8
same,Barnyardgrass plant response rating,"[4]; Rate 2000 g/ha, Pre-emergence (as headed), scale 0 to 10, 0 no effect, 10 complete control",9
same,Barnyardgrass plant response rating,"[4]; flood test, listed under Postemergence, Rate 250 g/ha, scale 0 to 10, 0 no effect, 10 complete control",0
same,Plant response rating Large crabgrass,[5]; [25],85
same,Plant response rating Large crabgrass,[5]; [26],100
same,Plant response rating Large crabgrass,[5]; [27],100
same,Plant response rating Large crabgrass,[5]; [28],100
same,Plant response rating Large crabgrass,[5]; Rate 250 g/ha,100
same,Plant response rating Large crabgrass,[5]; Rate 500 g/ha,100
same,"Plant response rating, Purple nutsedge",[6]; [25],0
same,"Plant response rating, Purple nutsedge",[6]; [26],0
same,Purple nutsedge plant response rating,[6]; [27],40
same,Purple nutsedge plant response rating,[6]; [28],40
same,"Plant response rating, Purple nutsedge",[6]; Rate 250 g/ha,75
same,"Plant response rating, Purple nutsedge",[6]; Rate 500 g/ha,85
same,"Plant response rating, Wheat (winter)","[7]; Rate 62 g/ha, 0 to 100 scale",0
same,"Plant response rating, Wheat (winter)","[7]; Rate 125 g/ha, 0 to 100 scale",55
same,"Plant response rating, Wheat (winter)","[7]; Rate 250 g/ha, 0 to 100 scale (0 no effect, 100 complete control)",75
same,"Plant response rating, Wheat (winter)","[7]; Rate 500 g/ha, 0 to 100 scale, 0 no effect, 100 complete control",0
same,"Plant response rating, Blackgrass",[8]; [29],30
same,"Plant response rating, Blackgrass",[8]; [30],65
same,"Plant response rating, Blackgrass","[8]; Rate 250 g/ha, 0 to 100 scale",65
same,"Plant response rating, Blackgrass",[8]; [31],90
same,"Plant response rating, Green foxtail",[9]; [29],50
same,"Plant response rating, Green foxtail",[9]; [30],85
same,"Plant response rating, Green foxtail","[9]; Rate 250 g/ha, 0 to 100 scale",100
same,"Plant response rating, Green foxtail",[9]; [31],85
same,"Plant response rating, I. Ryegrass",[10]; [29],20
same,"Plant response rating, I. Ryegrass",[10]; [30],100
same,"Plant response rating, I. Ryegrass","[10]; Rate 250 g/ha, 0 to 100 scale",100
same,"Plant response rating, I. Ryegrass",[10]; [31],70
same,"Plant response rating, Wheat (winter)",[11]; [29],20
same,"Plant response rating, Wheat (winter)",[11]; [30],30
same,"Plant response rating, Wheat (winter)","[11]; Rate 250 g/ha, 0 to 100 scale",55
same,"Plant response rating, Wheat (winter)",[11]; [31],10
same,"Plant response rating, Wild oat",[12]; [29],20
same,"Plant response rating, Wild oat",[12]; [30],30
same,"Plant response rating, Wild oat",[12]; [31],80
same,"Plant response rating, Barley (winter)",[13]; [29],10
same,"Plant response rating, Barley (winter)",[13]; [30],10
same,"Plant response rating, Barley (winter)","[13]; Rate 250 g/ha, 0 to 100 scale",20
same,"Plant response rating, Barley (winter)",[13]; [31],5

# Reference: US6737383B1, “Herbicidal oxadiazolidines” (priority 1999, dated 2004)
